The values below come from patent US20170151204A1 (priority 2011, published 2017).

“Also recorded” adds a separate entry of the source.

For assay [1], the system named is human neutrophils. In words: TLR mRNA expression by human neutrophils (RT-PCR). It counts as cell-based. To be noted: LTB4 100 nM or 1 μM, two hours. How it is done:
Peripheral blood neutrophils or peripheral blood mononuclear cells were isolated from healthy donors and were purified by centrifugation over Ficoll™ separation medium gradient as already described (Larochelle B, Blood. 1998;92:291-299). Human neutrophils (2×10^6) were resuspended in culture medium and stimulated with a placebo solution (0.45% w/v NaCl containing 0.25% w/v dextrose, NS) or LTB4 (100 nM or 1 μM in placebo solution) for two hours. Following stimulation, total RNA was extracted and RT-PCR was performed using specific primers for human TLR2 (FIG. 1) and TLR7-9 (FIG. 3).

Assay [2] relates to human neutrophils. The assay is described as follows: TLR9 protein expression by human neutrophils (flow cytometry). The assay is classed as cell-based. On the procedure: (§1) In FIG. 4A, cells were left untreated (dotted line) or were stimulated with LTB4 (100 nM) for 15, 30, 60 or 120 min. Background cellular autofluorescence is represented by shaded histogram. Cells were then fixed in paraformaldehyde, permeabilized in methanol, and TLR9 expression was assessed by flow cytometry. In FIG. 4B, cells were pre-treated for 30 min with the high affinity LTB4 receptor antagonist U75302 (10 μM) prior to stimulation with LTB4 for 60 min. Cells were then fixed in paraformaldehyde, permeabilized in methanol, and TLR9 expression was assessed by flow cytometry. In FIGS. 4C-D, cells were stimulated with LTB4 or leukotrienes C4 (LTC4), leukotriene D4 (LTD4), the complement protein C5a or IL-8 for 60 min. Cells were then fixed in paraformaldehyde, permeabilized in methanol, and TLR9 expression was assessed by flow cytometry. In FIG. 4E, neutrophils were pretreated with LTB4 for 60 min. Following this pretreatment, neutrophils were incubated in the presence of CpG-ODN 2216 sequence (5′-G*G*GGGACGATCGTCG*G* G*G*G*G*-3′) (SEQ ID NO:1) that were tagged with cyanine-3 (Cy3) fluorochrome. After an incubation for 4 h with Cy3-CpG-ODN sequences, neutrophils were extensively washed with phosphate buffer and Cy3 expression (corresponding to the degree in CpG-ODN binding on human neutrophils) was assessed by flow cytometry. […]. […]

Assay [3] relates to Influenza A/PR/8/34 H1N1 (IAV). The assay is classed as cell-based. The settings on record: MEF, IAV 0.1 m.o.i., 24 hours, LTB4 100 nM, NacMDP 0.1 μg/ml (FIG. 39).
The subject of the next assay is IAV-infected MEF. It counts as cell-based, mouse.
The subject of assay [4] is mouse embryogenic fibroblasts (MEF). The assay is classed as cell-based. To be noted: uninfected MEF, 6 hours, NacMDP 0.1, 1 and 10 μg/ml, LTB4 100 nM (FIG. 37).
The test system of assay [5] is human neutrophils. In words: Cy3-CpG-ODN binding assay on human neutrophils (flow cytometry). It counts as cell-based. To be noted: LTB4 pretreatment 60 min, then Cy3-CpG-ODN 2216 for 4 h; with or without inhibitory CpG-ODN (FIG. 4E-F). How it is done:
as §1
(In general: In flow cytometry, cells or beads pass a laser one at a time.)

The next assay has as its system RIG-I. The assay is described as follows: RIG-I-dependent promoter activation assay (luciferase) in BLT1-expressing HEK-293T cells. The assay is classed as cell-based. To be noted: RIG-I-expressing vector.
The subject of assay [6] is Influenza A/PR/8/34 H1N1 (IAV). The assay is described as follows: IAV-infected mice: lung viral load, IL-6 and histology. The assay is classed as in vivo. To be noted: 50 pfu IAV intranasally; iv. daily for three days, LTB4 1 μg/kg, NacMDP 2 mg/kg; four days post-infection (FIG. 40). How it is done:
In FIG. 39, MEFs were generated and plated as described in Example VII. Cells were infected with IAV (0.1 m.o.i.) alone (−), LTB4 alone (100 nM) or with a combination of LTB4 and NacMDP (0.1 μg/ml) for 24 hours. Following infection, cell culture supernatants were harvested and assayed for viral load determination by standard plaque assay in MDCK cells. For in vivo assessment of the antiviral activity of LTB4 and NacMDP, 4-6 weeks old C57131/6 female mice (n=4/group) were infected intranasally (in.) with 50 plaque-forming units (pfu) of IAV (FIG. 40). Starting at day one post-infection, mice were treated daily for three days with either saline, LTB4 alone (1 μg/kg) or with a combination of LTB4 and NacMDP (2 mg/kg), via the intravenous (iv.) route. Four days post-infection, animals were sacrificed and viral loads were determined from triturated lungs by standard plaque assay in MDCK cells. […] In FIG. 39, * p≦0.05. […]
To further investigate the in vivo consequences associated with the treatment of IAV-infected mice with a combination of LTB4 and the NOD2 agonist NacMDP, 4-6 weeks old C57131/6 female mice (n=4/group) were infected as described in Example IX and treated with either saline or a combination of LTB4 and NacMDP also as described. In FIG. 41, four-day infected animals were sacrificed and IL-6 titers were determined from triturated lungs by ELISA. […]

Assay [7] concerns human neutrophils. In words: TLR2 protein expression on human neutrophils (flow cytometry). The assay is classed as cell-based. To be noted: LTB4 100 nM, 15-120 min, flow cytometry (FIG. 2). How it is done: In FIG. 2A, cells were left untreated (1) or were stimulated with LTB4 (100 nM) for 15 (2), 30 (3), 60 (4) or 120 min (5). Cells were then fixed in paraformaldehyde and TLR2 expression was assessed by flow cytometry. Background cellular autofluorescence is represented by the dotted line (6).

Assay [8] concerns mouse embryonic fibroblasts (MEFs). In words: IFNβ secretion by wild type mouse embryonic fibroblasts. The assay is classed as cell-based. The settings on record: MEFs from wild type mice, LTB4 alone or with Sendai virus (FIG. 36).
For another assay, the system named is IPS-1. The assay is described as follows: IPS-1-dependent promoter activation assay (luciferase) in BLT1-expressing HEK-293T cells. The assay is classed as cell-based. The settings on record: IPS-1-expressing vector.

Regarding `CCCCC/C=C\C[C@@H](O)/C=C/C=C/C=C\[C@@H](O)CCCC(=O)O` [LTB4, 5S,12R-6,8,10,14(Z,E,E,Z)-eicosatetraenoic acid], the “expression of TLR2 mRNA” value in the assay on human neutrophils [1] (RT-PCR (FIG. 1)) is “stimulated by LTB4 in a dose-dependent form”. In addition, the “mRNA expression of TLR7-9” value with human neutrophils [1] (RT-PCR (FIG. 3)) is given as “stimulated in a dose-dependent form”. Moreover, the “TLR9 expression compared to LTC4, LTD4, C5a and IL-8” value with human neutrophils [2] (60 min stimulation (FIG. 4C-D)) was “potent inducer of TLR9 expression”. Besides, the “TLR9 expression (protein)” value with human neutrophils [2] (LTB4 100 nM, 15, 30, 60 or 120 min, with or without BLT1 antagonist U75302 10 μM (FIG. 4A-B)) is “induces TLR9 expression on human neutrophils in a time-dependent manner; also recorded: upregulated TLR2 and TLR9 protein expression”. In addition, the “viral load (in vitro)” value in [3] was “significant decrease in viral load”. Moreover, the figures for the IL-6 secretion result (in the assay with IAV-infected MEF; in assay [4]) were “significantly enhance IL-6 secretion” and “do not induce significant IL-6 secretion compared to background”, respectively. Also, in the assay on human neutrophils [5], the “CpG-ODN binding on human neutrophils (Cy3 expression)” value is given as “enhances CpG-ODN binding on human neutrophils in a TLR9-dependent manner”. In addition, the “NF-κB promoter activity (luciferase)” value with RIG-I (LTB4 stimulation 24 h (FIG. 28)) was “enhances NF-κB as well as IFN-β promoter activity”; in the assay on IPS-1 (LTB4 stimulation 24 h (FIG. 30)), “induces NF-κB as well as IFN-β promoter activity”. The “IFN-β promoter activity (luciferase)” value with RIG-I (LTB4 stimulation 24 h (FIG. 29)) is “enhances NF-κB as well as IFN-β promoter activity”; with IPS-1 (LTB4 stimulation 24 h (FIG. 31)) it was “induces NF-κB as well as IFN-β promoter activity”. Also, the “viral load in lungs (in vivo)” value in [6] is “significant decrease in viral load”. The “TLR2 expression (protein)” value in the assay on human neutrophils [7] is “enhanced TLR2 expression; also recorded: upregulated TLR2 and TLR9 protein expression”. Besides, the “secretion of IFNβ” value in [8] is “induces secretion of IFNβ”.

As to `CC(=O)N[C@H]1C(O)O[C@H](CO)[C@@H](O)[C@@H]1O[C@H](C)C(=O)N[C@@H](C)C(=O)N[C@H](CCC(=O)O)C(N)=O` (some centres unmarked) [NacMDP, N-acetyl muramyl dipeptide, reference compound], the IL-6 secretion entry in the assay with IAV-infected MEF is given as “significantly enhance IL-6 secretion”; in assay [4] it was “do not induce significant IL-6 secretion compared to background”.
